Values quoted from earlier work, collected in patent US20180125800A1, “Stable Formulation for Parenteral Administration of Tapentadol” (Gruenenthal GmbH, priority 2015, published 2018).

Settings: more pronounced at higher pH values

CC[C@@H](c1cccc(O)c1)[C@@H](C)CN(C)C [Tapentadol, (1R,2R)-3-(3-dimethylamino-1-ethyl-2-methyl-propyl)-phenol]
antimicrobial properties: exhibits antimicrobial properties
